Data: patent US7335665B2, “Spirocyclic piperidines as MCH1 antagonists and uses thereof” (H - Lundbeck A/S, priority 2003, dated 2008)

target: T1, rat MCH1 receptor (Rattus norvegicus, UniProt P97639); test: Radioligand binding assay at cloned rat MCH1 receptor ([3H]Compound A displacement); settings: KI, cloned rat MCH1, membranes of transfected Peakr293 cells, 0.08 nM [3H]Compound A, 25° C., 90 minutes
T1 construct: expressed in transfected cells; host or cells: Human embryonic kidney Peak rapid 293 cells (Peakr293), transient, calcium phosphate; membranes
Experimental: For binding assays, pellets of transfected cells are suspended in ice-cold buffer (20 mM Tris.HCl, 5 mM EDTA, pH 7.4) and homogenized by sonication for 7 sec. The cell lysates are centrifuged at 200×g for 5 min at 4° C. The supernatants are then centrifuged at 40,000×g for 20 min at 4° C. The resulting pellets are washed once in the homogenization buffer and suspended in binding buffer (see methods for radioligand binding). Protein concentrations are determined by the method of Bradford (1976) using bovine serum albumin as the standard. Binding assays are usually performed immediately, however it is possible to prepare membranes in batch and store frozen in liquid nitrogen for future use.
Radioligand binding assays for the rat MCH1 receptor were carried out using plasmid pcDNA3.1-rMCH1-f (ATCC Patent Deposit Designation No. PTA-3505). Plasmid pcDNA3.1-rMCH1-f comprises the regulatory elements necessary for expression of DNA in a mammalian cell operatively linked to DNA encoding the rat MCH1 receptor so as to permit expression thereof. Plasmid pcDNA3.1-rMCH1-f was deposited on Jul. 5, 2001, with the American Type Culture Collection (ATCC), 12301 Parklawn Drive, Rockville, Md. 20852, U.S.A. under the provisions of the Budapest Treaty for the International Recognition of the Deposit of Microorganisms for the Purposes of Patent Procedure and was accorded ATCC Patent Deposit Designation No. PTA-3505.
Human embryonic kidney Peak rapid 293 cells (Peakr293 cells) were transiently transfected with DNA encoding the MCH1 receptor utilizing the calcium phosphate method and cell membranes were prepared as described above. Binding experiments with membranes from Peakr293 cells transfected with the rat MCH1 receptor were performed with 0.08 nM [^3H]Compound A (custom labeled by Amersham) (the synthesis of Compound A is described in detail below) using an incubation buffer consisting of 50 mM Tris pH 7.4, 10 mM MgCl2, 0.16 mM PMSF, 1 mM 1,10 phenantroline and 0.2% BSA. Binding was performed at 25° C. for 90 minutes. Incubations were terminated by rapid vacuum filtration over GF/C glass fiber filters, presoaked in 5% PEI using […] Tris pH 7.4 as wash buffer. In all experiments, nonspecific binding is defined using […] Compound A.
The compounds described above were assayed using cloned rat MCH1.

T1 sequence (P97639 whole entry): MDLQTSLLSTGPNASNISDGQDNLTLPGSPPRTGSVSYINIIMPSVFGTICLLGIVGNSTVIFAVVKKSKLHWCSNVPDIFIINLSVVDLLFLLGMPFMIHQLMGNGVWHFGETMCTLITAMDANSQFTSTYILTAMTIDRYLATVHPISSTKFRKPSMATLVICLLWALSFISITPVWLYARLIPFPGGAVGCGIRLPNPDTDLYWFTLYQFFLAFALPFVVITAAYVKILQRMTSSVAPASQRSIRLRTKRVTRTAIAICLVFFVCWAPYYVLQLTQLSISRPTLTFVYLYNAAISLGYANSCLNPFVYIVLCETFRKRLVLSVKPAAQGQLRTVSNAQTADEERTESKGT

Question: Which Ki does the source give for `S=C(NCCCCCCN1CCC2(CCc3ccccc32)CC1)Nc1cccc2ccccc12` [Example 24, (NAPHTHYLAMINO)[(6-SPIRO[INDANE-1,4′-PIPERIDINE]-10-YLHEXYL)AMINO]METHANE-1-THIONE] here?
Answer: 668 nM

Question: Which Ki does the source give for `O=C(NCCCN1CCC2(CCc3ccccc32)CC1)C1(c2ccc(Cl)cc2)CCC1` [Example 59, [1-(4-CHLOROPHENYL)CYCLOBUTYL]-N-(3-(SPIRO[INDANE-1,4′-PIPERIDINE]-10-YL)PROPYL)CARBOXAMIDE] here?
Answer: 175 nM

Question: With `Cc1ccc(C(C(=O)NCCCN2CCC3(CCc4ccccc43)CC2)c2ccc(C)cc2)cc1` [Example 48, 2,2-BIS(4-METHYL)PHENYL)-N-(3-(SPIRO[INDANE-1,4′-PIPERIDINE]-10-YL)PROPYL)ACETAMIDE] as the compound, how does the Ki read?
Answer: 29.7 nM

Question: How did the Ki turn out when `O=C(NCCCN1CCC2(CC1)OCc1ccccc12)C(c1ccccc1)c1ccccc1` [Example 76, 2,2-DIPHENYL-N-(3-(SPIRO[1,3-DIHYDROISOBENZOFURAN-1,4′-PIPERIDINE]-10-YL)PROPYL)ACETAMIDE] was run?
Answer: 20.6 nM

Question: `O=C(NCCCN1CCC2(CC1)OCc1ccccc12)C1(c2ccc(F)cc2)CCCCC1` [Example 80, [(4-FLUOROPHENYL)CYCLOHEXYL]-N-(3-(SPIRO[1,3-DIHYDROISOBENZOFURAN-1,4′-PIPERIDINE]-10-YL)PROPYL)CARBOXAMIDE] was tested. Which Ki did it give?
Answer: 174 nM

Question: `O=C(NCCCCN1CCC2(CCc3ccccc32)CC1)c1sc2ccccc2c1Cl` [Example 34, (3-CHLOROBENZO[B]THIOPHEN-2-YL)-N-(4-(SPIRO[INDANE-1,4′-PIPERIDINE]-10-YL)BUTYL)CARBOXAMIDE] was tested. Which Ki did it give?
Answer: 883 nM

Question: `O=C1c2ccccc2C(=O)N1CCCCN1CCC2(C=Cc3ccccc32)CC1` [Example 1, 2-(4-(-(SPIRO[INDENE-1,4′-PIPERIDINE]-10-YL)BUTYL)BENZO[C]AZOLINE-1,3-DIONE] was tested. Which Ki did it give?
Answer: 807 nM

Question: With `O=C(NCCCN1CCC2(CCc3ccccc32)CC1)c1ccc(Oc2cc(Cl)cc(Cl)c2)o1` [Example 17, [5-(3,5-DICHLOROPHENOXY)(2-FURYL)]-N-(3-(SPIRO[INDANE-1,4′-PIPERIDINE]-10-YL)PROPYL)CARBOXAMIDE] as the compound, how does the Ki read?
Answer: 935 nM

Question: How did the Ki turn out when `O=C(NCCCN1CCC2(CCc3ccccc32)CC1)C1(c2ccc(F)cc2)CCCC1` [Example 54, [(4-FLUOROPHENYL)CYCLOPENTYL]-N-(3-(SPIRO[INDANE-1,4′-PIPERIDINE]-10-YL)PROPYL)CARBOXAMIDE] was run?
Answer: 208 nM

Question: With `O=C(NCCCCCN1CCC2(C=Cc3ccccc32)CC1)C(c1ccccc1)c1ccccc1` [Example 40, 2,2-DIPHENYL-N-(5-(SPIRO[INDENE-1,4′-PIPERIDINE]-10-YL)PENTYL)ACETAMIDE] as the compound, how does the Ki read?
Answer: 384 nM

Question: `O=C(NCCCCCCN1CCC2(CCc3ccccc32)CC1)c1ccc(F)c(F)c1` [Example 19, (3,4-DIFLUOROPHENYL)-N-(6-(SPIRO[INDANE-1,4′-PIPERIDINE]-10-YL)HEXYL)CARBOXAMIDE] was tested. Which Ki did it give?
Answer: 412 nM

same assay, conditions: cloned rat MCH1, membranes of transfected Peakr293 cells, 0.08 nM [3H]Compound A, 25° C., 90 minutes; read-out: KI

Question: How did the Ki turn out when `O=C(NCCCN1CCC2(CC1)OCc1ccc(Cl)cc12)C(c1ccccc1)c1ccccc1` [Example 100, N-[3-(5-CHLOROSPIRO[1,3-DIHYDROISOBENZOFURAN-3,4′-PIPERIDINE]-10-YL)PROPYL]-2,2-DIPHENYLACETAMIDE] was run?
Answer: 2.6 nM

Question: For `O=C(NCCCCN1CCC2(CCc3ccccc32)CC1)c1cc(F)cc(F)c1` [Example 13, (3,5-DIFLUOROPHENYL)-N-(4-(SPIRO[INDANE-1,4′-PIPERIDINE]-10-YL)BUTYL)CARBOXAMIDE], which Ki is on record?
Answer: 270 nM

Question: For `O=C(NCCCN1CCC2(C=Cc3ccccc32)CC1)C1(c2ccc(F)cc2)CCCCC1` [Example 72, [(4-FLUOROPHENYL)CYCLOHEXYL]-N-(3-(SPIRO[INDENE-1,4′-PIPERIDINE]-10-YL)PROPYL)CARBOXAMIDE], which Ki is on record?
Answer: 131 nM

Question: With `O=C(NCCCCN1CCC2(CCc3ccccc32)CC1)c1ccc(F)c(F)c1` [Example 60, (3,4-DIFLUOROPHENYL)-N-(4-(SPIRO[INDANE-1,4′-PIPERIDINE]-10-YL)BUTYL)CARBOXAMIDE] as the compound, how does the Ki read?
Answer: 42.3 nM

Question: With `O=C(NCCCN1CCC2(CC1)OCc1ccccc12)C(c1ccc(Cl)cc1)c1ccc(Cl)cc1` [Example 90, 2,2-BIS(4-CHLOROPHENYL)-N-(3-(SPIRO[1,3-DIHYDROISOBENZOFURAN-1,4′-PIPERIDINE]-10-YL)PROPYL)ACETAMIDE] as the compound, how does the Ki read?
Answer: 5.4 nM

Question: With `O=C(NCCCN1CCC2(CCc3ccccc32)CC1)c1cc(Cl)cc(Cl)c1` [Example 8, (3,5-DICHLOROPHENYL)-N-(3-(SPIRO[INDANE-1,4′-PIPERIDINE]-10-YL)PROPYL)CARBOXAMIDE] as the compound, how does the Ki read?
Answer: 914 nM

Question: For `Cc1ccc(C(C(=O)NCCCN2CCC3(CC2)OCc2ccccc23)c2ccc(C)cc2)cc1` [Example 78, 2,2-BIS(4-METHYL)PHENYL)-N-(3-(SPIRO[1,3-DIHYDROISOBENZOFURAN-1,4′-PIPERIDINE]-10-YL)PROPYL)ACETAMIDE], which Ki is on record?
Answer: 19.7 nM

Question: Which Ki does the source give for `O=C(NCCCN1CCC2(CCc3ccccc32)CC1)C1(c2ccc(Cl)cc2)CC1` [Example 58, [1-(4-CHLOROPHENYL)CYCLOPROPYL]-N-(3-(SPIRO[INDANE-1,4′-PIPERIDINE]-10-YL)PROPYL)CARBOXAMIDE] here?
Answer: 150 nM

Question: With `CC(C)(C)c1cc(C(=O)NCCCCCN2CCC3(C=Cc4ccccc43)CC2)n(Cc2ccccc2)n1` [Example 37, [3-(TERT-BUTYL)-1-BENZYL)PYRAZOL-5-YL]-N-(5-(SPIRO[INDENE-1,4′-PIPERIDINE]-10-YL)PENTYL)CARBOXAMIDE] as the compound, how does the Ki read?
Answer: 794 nM

Question: Which Ki does the source give for `O=C(NCCCCN1CCC2(CCc3ccccc32)CC1)C(c1ccccc1)c1ccccc1` [Example 4, 2,2-DIPHENYL-N-(4-(SPIRO[INDANE-1,4′-PIPERIDINE]-10-YL)BUTYL)ACETAMIDE] here?
Answer: 214 nM

Question: With `O=C(NCCCCCCN1CCC2(CCc3ccccc32)CC1)c1cccnc1Oc1ccc(Cl)cc1` [Example 33, [2-(4-CHLOROPHENOXY)(3-PYRIDYL)]-N-(6-(SPIRO[INDANE-1,4′-PIPERIDINE]-10-YL)HEXYL)CARBOXAMIDE] as the compound, how does the Ki read?
Answer: 431 nM

Question: With `Cc1ccc(C(C(=O)NCCCN2CCC3(C=Cc4ccccc43)CC2)c2ccc(C)cc2)cc1` [Example 62, 2,2-BIS(4-METHYL)PHENYL)-N-(3-(SPIRO[INDENE-1,4′-PIPERIDINE]-10-YL)PROPYL)ACETAMIDE] as the compound, how does the Ki read?
Answer: 26 nM

Question: Which Ki does the source give for `O=C(NCCN1CCC2(CCc3ccccc32)CC1)C(c1ccccc1)c1ccccc1` [Example 41, 2,2-DIPHENYL-N-(2-(SPIRO[INDANE-1,4′-PIPERIDINE]-10-YLETHYL) ACETAMIDE] here?
Answer: 103 nM

Question: Which Ki does the source give for `O=C(NCCN1CCC2(CCc3ccccc32)CC1)c1cc(Cl)cc(Cl)c1` [Example 44, (3,5-DICHLOROPHENYL)-N-(2-(SPIRO[INDANE-1,4′-PIPERIDINE]-10-YLETHYL)CARBOXAMIDE] here?
Answer: 182 nM

Question: How did the Ki turn out when `O=C(NCCCCCN1CCC2(CCc3ccccc32)CC1)Nc1cc(Cl)cc(Cl)c1` [Example 25, N-(3,5-DICHLOROPHENYL)[(5-(SPIRO[INDANE-1,4′-PIPERIDINE]-10-YL)PENTYL)AMINO]CARBOXAMIDE] was run?
Answer: 542 nM

Question: `Cc1onc(-c2c(F)cccc2Cl)c1C(=O)NCCCCCCN1CCC2(CCc3ccccc32)CC1` [Example 12, [3-(2-CHLORO-6-FLUOROPHENYL)-5-METHYLISOXAZOL-4-YL]-N-(6-(SPIRO[INDANE-1,4′-PIPERIDINE]-10-YL)HEXYL)CARBOXAMIDE] was tested. Which Ki did it give?
Answer: 661 nM

Question: How did the Ki turn out when `O=C(NCCCN1CCC2(CCc3ccccc32)CC1)C(c1ccc(F)cc1)c1ccc(F)cc1` [Example 57, 2,2-BIS(4-FLUOROPHENYL)-N-(3-(SPIRO[INDANE-1,4′-PIPERIDINE]-10-YL)PROPYL)ACETAMIDE] was run?
Answer: 4.2 nM

Question: Which Ki does the source give for `O=C(NCCCN1CCC2(C=Cc3ccccc32)CC1)C1(c2ccc(Cl)cc2)CCCC1` [Example 69, [(4-CHLOROPHENYL)CYCLOPENTYL]-N-(3-(SPIRO[INDENE-1,4′-PIPERIDINE]-10-YL)PROPYL)CARBOXAMIDE] here?
Answer: 104 nM
